This is an account of results in publication PMC12560079, “Cytotoxic Triterpene Glycosides from Mexican Sea Cucumber Holothuria inornata” (Journal of Natural Products, 2025).

Series [1] has as its system human glioblastoma (U251). Description: SRB cytotoxicity assay, U251. In kind it is cell-based. The settings on record: U-251, SRB method, 48 h exposure, ± SD, read-out: Cell Line IC50 U251. As to the method:
(§1) Cytotoxicity was evaluated based on the percentage of cell growth inhibition. The cancer cell lines were obtained from the National Cancer Institute (NCI, Bethesda, MD). The study utilized human cancer cell lines derived from central nervous system glia (U251), prostate (PC-3), leukemia (K562), colon (HCT-15), breast (MCF-7), and lung (SKLU). Each cell line was maintained in RPMI 1640 medium supplemented with fetal bovine serum (10%), L-glutamate (2.0 mM), 10,000 units/mL penicillin G, 10,000 […] sulfate, […] amphotericin B and 1% nonessential amino acids. Cytotoxicity was assessed by treating cancerous cells with the extract, the saponin fraction, and the major isolated compounds, all of which were solubilized in ultrapure water (18.2 MΩ) and tested at a concentration of 25 μg/mL. For the determination of IC50 values, the same cancer cell lines were evaluated and had the same treatment, while the range of concentrations was 25, 12.5, 6.5, 5.0, 2.5, and 1.25 μg/mL in triplicate wells for each concentration; commercially formulated mitoxantrone, used as a water-soluble chemotherapeutic drug, was used as a positive control, and ultrapure water was used as a negative control. The resulting data obtained from the assay for each cell line were analyzed using nonlinear regression to calculate IC50 using GraphPad Prism 10.5.0 (San Diego, CA, USA). The percentage of cell growth inhibition was determined by using the protein-binding dye sulforhodamine B (SRB) in a microculture assay. Cells were harvested from culture flasks and seeded into 96-well plates at a density of 5,000 to 10,000 cells per well, maintaining the same temperature and humidity conditions as during culture incubation. The test compounds were then added, and cells were exposed for 48 h. After incubation, cells were fixed in situ by adding 50 μL of cold 50% trichloroacetic acid and incubating at 4 °C for 1 h. […] The plates were then shaken for 10 min, and absorbance was measured at 515 nm using a microplate spectrophotometer.

In series [2] the test system is human mammary adenocarcinoma (MCF-7). The experiment in a line: SRB cytotoxicity assay, MCF-7. In kind it is cell-based. The settings on record: MCF7, SRB method, 48 h exposure, ± SD, read-out: Cell Line IC50 MCF-7. As to the method:
as §1

Series [3] has as its system human prostatic adenocarcinoma (PC-3). The experiment in a line: SRB cytotoxicity assay, PC-3. The class given is cell-based. To be noted: SRB method, 48 h exposure, ± SD, read-out: Cell Line IC50 PC-3. As to the method: as §1
For series [4], the system named is human lung adenocarcinoma (SKLU-1). The experiment in a line: SRB cytotoxicity assay, SKLU-1. The class given is cell-based. The settings on record: SK-LU-1, SRB method, 48 h exposure, ± SD, read-out: Cell Line IC50 SKLU-1. As to the method:
as §1

The test system of series [5] is cancer cell lines U251, PC-3, K562, HCT-15, MCF-7, SKLU-1. Description: SRB cytotoxicity assay, panel of six cancer cell lines. To be noted: for growth inhibition (cytotoxic activity) of cancer cell lines: 25 μg/mL, six cell lines, result in words (Figure 1). The class given is cell-based, human. As to the method:
Cytotoxicity was evaluated based on the percentage of cell growth inhibition. The cancer cell lines were obtained from the National Cancer Institute (NCI, Bethesda, MD). The study utilized human cancer cell lines derived from central nervous system glia (U251), prostate (PC-3), leukemia (K562), colon (HCT-15), breast (MCF-7), and lung (SKLU). Each cell line was maintained in RPMI 1640 medium supplemented with fetal bovine serum (10%), L-glutamate (2.0 mM), 10,000 units/mL penicillin G, […] streptomycin sulfate, 25 mg/mL amphotericin B and 1% nonessential amino acids. Cytotoxicity was assessed by treating cancerous cells with the extract, the saponin fraction, and the major isolated compounds, all of which were solubilized in ultrapure water (18.2 MΩ) and tested at a concentration of 25 μg/mL. For the determination of IC50 values, the same cancer cell lines were evaluated and had the same treatment, while the range of concentrations was 25, 12.5, 6.5, 5.0, 2.5, and 1.25 μg/mL in triplicate wells for each concentration; commercially formulated mitoxantrone, used as a water-soluble chemotherapeutic drug, was used as a positive control, and ultrapure water was used as a negative control. The resulting data obtained from the assay for each cell line were analyzed using nonlinear regression to calculate IC50 using GraphPad Prism 10.5.0 (San Diego, CA, USA). The percentage of cell growth inhibition was determined by using the protein-binding dye sulforhodamine B (SRB) in a microculture assay. Cells were harvested from culture flasks and seeded into 96-well plates at a density of 5,000 to 10,000 cells per well, maintaining the same temperature and humidity conditions as during culture incubation. The test compounds were then added, and cells were exposed for 48 h. After incubation, cells were fixed in situ by adding 50 μL of cold 50% trichloroacetic acid and incubating at 4 °C for 1 h. The plates were then washed with Milli-Q water, air-dried at room temperature, and stained with a 0.4% SRB solution. Excess SRB was removed by washing with 1% aqueous acetic acid. The plates were air-dried, and the bound dye was solubilized with 100 μL of a 10 mM unbuffered Tris base. The plates were then shaken for 10 min, and absorbance was measured at 515 nm using a microplate spectrophotometer.

In series [6] the test system is human chronic myelogenous leukemia (K562). The experiment in a line: SRB cytotoxicity assay, K562. In kind it is cell-based. The settings on record: SRB method, 48 h exposure, ± SD, read-out: Cell Line IC50 K562. As to the method:
as §1

The test system of series [7] is human colorectal adenocarcinoma (HCT-15). The experiment in a line: SRB cytotoxicity assay, HCT-15. The settings on record: SRB method, 48 h exposure, ± SD, read-out: Cell Line IC50 HCT-15. The class given is cell-based. As to the method:
as §1

The mark [8] stands for this setting: Homo sapiens, span over the evaluated cell lines, SRB method, read-out: IC50 values across the tested cancer cell lines.

Read-outs that look alike come from different tables or passages of the source.

Regarding `CC(=O)OC(C)(C)CCCC1(C)OC(=O)C23C(O)C=C4C(CCC5C4(C)CCC(OC4OCC(OS(=O)(=O)O)C(O)C4OC4OC(C)C(O)C(O)C4O)C5(C)C)C2(C)CCC13O` [Inornatoside A (1), 25-acetoxy-3-O-(β-D-quinovopyranosyl-(1→2)-4-O-sodiumsulfate-β-D-xylopyranoside)-holost-9(11)-ene-3β,12α,17α-triol], the IC50 in series [1] is 3530 ± 130 nM; in series [2], > 50000 nM; in series [3], 5350 ± 10 nM; in series [4], 3650 ± 20 nM; in series [5] (setting [8]), 3530 to 5350 nM; in series [6] it was 4240 ± 20 nM. The half-maximal inhibitory concentration (IC50) in series [7] is 4690 ± 10 nM. Also, the “growth inhibition (cytotoxic activity) of cancer cell lines” value (shortened to “growth inhibition (cytotoxic activity)”) in series [5] (SRB method) is “significantly more active than holothurin B (7)”.
`COC1C(O)C(CO)OC(OC2C(O)C(CO)OC(OC3C(C)OC(OC4C(OC5CCC6(C)C7=CC(O)C89C(=O)OC(C)(CCCC(C)(C)OC(C)=O)C8(O)CCC9(C)C7CCC6C5(C)C)OCC(OS(=O)(=O)O)C4O)C(O)C3O)C2O)C1O` [Inornatoside B (2), 25-acetoxy-3-O-(3-O-methyl-β-D-glucopyranosyl-(1→3)-β-D-glucopyranosyl-(1→4)-β-D-quinovopyranosyl-(1→2)-4-O-sodiumsulfate-β-D-xylopyranoside)-holost-9(11)-ene-3β,12α,17α-triol]: the concentration for half-maximal inhibition (IC50) was 540 ± 10 nM in series [1]; 470 ± 40 nM in series [2]; 490 ± 10 nM in series [3]; 500 ± 10 nM in series [4]; 470 to 500 nM in series [5] (Homo sapiens, span over MCF-7 and SKLU-1 cell lines, read-out: IC50 values against MCF-7 and SKLU-1); 470 to 1040 nM in series [5] (setting [8]). Further, the IC50 in series [5] (span over the evaluated cell lines, SRB method, read-out: IC50 values across the tested cancer cell lines) was ~500 nM; in series [6] it was 480 ± 10 nM; in series [7] it was 1040 ± 10 nM. Further, in series [5] (SRB method), the “growth inhibition (cytotoxic activity)” value is “significantly more active than holothurin B (7)”.
Turning to `O=C1c2c(O)ccc(O)c2C(=O)c2c(NCCNCCO)ccc(NCCNCCO)c21` [Mitoxantrone, reference compound], the IC50 in series [1] was 550 ± 40 nM; in series [2], 720 ± 10 nM; in series [3], 630 ± 40 nM; in series [4], 1160 ± 150 nM; in series [5] (setting [8]), 550 to 1160 nM; in series [6] it was 650 ± 20 nM. Also, the IC50 in series [7] stood at 750 ± 40 nM.
As for `CC1OC(OC2C(OC3CCC4(C)C5=CC(O)C67C(=O)OC(C)(C8CCC(C)(C)O8)C6(O)CCC7(C)C5CCC4C3(C)C)OCC(OS(=O)(=O)O)C2O)C(O)C(O)C1O` (centres unmarked) [holothurin B (7), holothurin B], the “growth inhibition (cytotoxic activity)” value in series [5] (SRB method) was “did not exhibit high sensitivity”.
